According to PMC5218480 (PLoS ONE, 2017):

System: MV-4-11 cells
Experiment: Gene expression microarray analysis (Affymetrix PrimeView) and GSEA
Assay type: cell-based, human
Parameters: RFU PODN (11730768_x_at) / Fold change /veh PODN (11730768_x_at) / RFU LINC00158 (11744669_a_at) / Fold change /veh LINC00158 (11744669_a_at) / RFU DUSP10 (11751237_a_at) / Fold change /veh DUSP10 (11751237_a_at) / RFU ID3 (11757404_x_at) / Fold change /veh ID3 (11757404_x_at) / RFU PLEKHG5 (11737974_s_at) / Fold change /veh PLEKHG5 (11737974_s_at) / RFU LRRC4B (11730491_at) / Fold change /veh LRRC4B (11730491_at) / RFU GIMAP4 (11747438_a_at) / Fold change /veh GIMAP4 (11747438_a_at) / RFU KRT8 (11758183_x_at) / Fold change /veh KRT8 (11758183_x_at) / RFU CNN1 (11734310_a_at) / Fold change /veh CNN1 (11734310_a_at) / RFU VPS37D (11726825_at) / Fold change /veh VPS37D (11726825_at) / RFU C10orf10 (11716522_x_at) / Fold change /veh C10orf10 (11716522_x_at) / RFU KIR2DL2 /// KIR2DL4 /// KIR2DL5A /// KIR2DL5B /// KIR2DS1 /// KIR2DS2 /// KIR2DS3 /// KIR2DS4 /// KIR3DL3 /// KIR3DL3 /// KIR3DS1 (11738374_at) / Fold change /veh KIR2DL2 /// KIR2DL4 /// KIR2DL5A /// KIR2DL5B /// KIR2DS1 /// KIR2DS2 /// KIR2DS3 /// KIR2DS4 /// KIR3DL3 /// KIR3DL3 /// KIR3DS1 (11738374_at) / RFU C1QL1 (11718748_at) / Fold change /veh C1QL1 (11718748_at) / RFU TMPRSS4 (11747572_a_at) / Fold change /veh TMPRSS4 (11747572_a_at) / RFU HAMP (11756126_x_at) / Fold change /veh HAMP (11756126_x_at) / RFU RNFT2 (11725882_a_at) / Fold change /veh RNFT2 (11725882_a_at) / RFU NR4A2 (11747474_a_at) / Fold change /veh NR4A2 (11747474_a_at) / RFU ABCC12 (11746883_a_at) / Fold change /veh ABCC12 (11746883_a_at) / RFU TMEM136 (11760407_x_at) / Fold change /veh TMEM136 (11760407_x_at) / RFU CLDN22 /// WWC2 (11732394_at) / Fold change /veh CLDN22 /// WWC2 (11732394_at) / RFU HLA-DPB1 (11760878_x_at) / Fold change /veh HLA-DPB1 (11760878_x_at) / RFU SPINT1 (11716480_a_at) / Fold change /veh SPINT1 (11716480_a_at) / RFU GAP43 (11754022_s_at) / Fold change /veh GAP43 (11754022_s_at) / RFU A4GNT (11735810_at) / Fold change /veh A4GNT (11735810_at) / RFU PRB3 (11715151_x_at) / Fold change /veh PRB3 (11715151_x_at) / RFU TUBB4B (11761932_at) / Fold change /veh TUBB4B (11761932_at) / RFU CAPN14 (11732068_a_at) / Fold change /veh CAPN14 (11732068_a_at) / RFU TMCC2 (11721928_a_at) / Fold change /veh TMCC2 (11721928_a_at) / RFU IRGQ (11745062_a_at) / Fold change /veh IRGQ (11745062_a_at) / RFU FAM174B (11720279_a_at) / Fold change /veh FAM174B (11720279_a_at) / RFU TMPRSS4 (11748680_a_at) / Fold change /veh TMPRSS4 (11748680_a_at) / RFU FAM212B (11763350_a_at) / Fold change /veh FAM212B (11763350_a_at) / RFU PLEKHG5 (11743358_a_at) / Fold change /veh PLEKHG5 (11743358_a_at) / RFU ZSCAN30 (11745921_a_at) / Fold change /veh ZSCAN30 (11745921_a_at) / RFU CMKLR1 (11741424_a_at) / Fold change /veh CMKLR1 (11741424_a_at) / RFU LOC101060620 /// MAPK8IP1 (11723275_at) / Fold change /veh LOC101060620 /// MAPK8IP1 (11723275_at) / RFU SPTSSB (11747773_x_at) / Fold change /veh SPTSSB (11747773_x_at) / RFU PRSS12 (11739890_at) / Fold change /veh PRSS12 (11739890_at) / RFU BIN1 (11741810_x_at) / Fold change /veh BIN1 (11741810_x_at) / RFU WNT11 (11732464_a_at) / Fold change /veh WNT11 (11732464_a_at) / RFU C10orf10 (11716521_a_at) / Fold change /veh C10orf10 (11716521_a_at) / RFU C5orf56 (11738089_at) / Fold change /veh C5orf56 (11738089_at) / RFU CYB561 (11721691_x_at) / Fold change /veh CYB561 (11721691_x_at) / RFU ANKRD19P (11752326_a_at) / Fold change /veh ANKRD19P (11752326_a_at) / RFU OR2T12 /// OR2T33 /// OR2T8 (11738714_s_at) / Fold change /veh OR2T12 /// OR2T33 /// OR2T8 (11738714_s_at) / RFU VCAN (11748164_a_at) / Fold change /veh VCAN (11748164_a_at) / RFU JSRP1 (11732532_at) / Fold change /veh JSRP1 (11732532_at) / RFU KRTAP10-11 (11738290_x_at) / Fold change /veh KRTAP10-11 (11738290_x_at) / RFU MYO3A (11730013_a_at) / Fold change /veh MYO3A (11730013_a_at) / RFU EBF3 (11725865_a_at) / Fold change /veh EBF3 (11725865_a_at) / RFU CAMK2N1 (11719241_x_at) / Fold change /veh CAMK2N1 (11719241_x_at) / RFU C5orf56 (11738088_a_at) / Fold change /veh C5orf56 (11738088_a_at) / RFU OLFML3 (11715873_a_at) / Fold change /veh OLFML3 (11715873_a_at) / RFU LOC100653217 /// NTM (11731650_a_at) / Fold change /veh LOC100653217 /// NTM (11731650_a_at) / RFU MAPK11 (11762145_a_at) / Fold change /veh MAPK11 (11762145_a_at) / RFU FIZ1 (11724087_x_at) / Fold change /veh FIZ1 (11724087_x_at) / RFU OASL (11726364_x_at) / Fold change /veh OASL (11726364_x_at) / RFU SOX15 (11748057_x_at) / Fold change /veh SOX15 (11748057_x_at) / RFU CD79A (11719716_a_at) / Fold change /veh CD79A (11719716_a_at) / RFU HIST1H1D (11736915_at) / Fold change /veh HIST1H1D (11736915_at) / RFU CASKIN2 (11723855_a_at) / Fold change /veh CASKIN2 (11723855_a_at) / RFU LOC730098 (11760151_x_at) / Fold change /veh LOC730098 (11760151_x_at) / RFU OR4N2 (11742367_at) / Fold change /veh OR4N2 (11742367_at) / RFU PRRT2 (11749266_a_at) / Fold change /veh PRRT2 (11749266_a_at) / RFU SNX32 (11753110_a_at) / Fold change /veh SNX32 (11753110_a_at) / RFU CDHR5 (11726645_a_at) / Fold change /veh CDHR5 (11726645_a_at) / RFU RCAN1 (11760418_a_at) / Fold change /veh RCAN1 (11760418_a_at) / RFU FAM167A (11723789_a_at) / Fold change /veh FAM167A (11723789_a_at) / RFU FAM26E (11764081_at) / Fold change /veh FAM26E (11764081_at) / RFU ISYNA1 (11749810_s_at) / Fold change /veh ISYNA1 (11749810_s_at) / RFU ACY1 (11761880_at) / Fold change /veh ACY1 (11761880_at) / RFU 11764098_at / Fold change /veh 11764098_at / RFU SAMD14 (11745864_x_at) / Fold change /veh SAMD14 (11745864_x_at) / RFU NPB (11741838_a_at) / Fold change /veh NPB (11741838_a_at) / RFU TMPRSS6 (11731388_a_at) / Fold change /veh TMPRSS6 (11731388_a_at) / RFU KRTAP10-2 (11738614_at) / Fold change /veh KRTAP10-2 (11738614_at) / RFU ARHGAP8 /// PRR5-ARHGAP8 (11727945_x_at) / Fold change /veh ARHGAP8 /// PRR5-ARHGAP8 (11727945_x_at) / RFU KRTAP5-7 /// NADSYN1 (11734609_at) / Fold change /veh KRTAP5-7 /// NADSYN1 (11734609_at) / RFU RASL12 (11751679_a_at) / Fold change /veh RASL12 (11751679_a_at) / RFU CDKN2B (11736163_a_at) / Fold change /veh CDKN2B (11736163_a_at) / RFU PRF1 (11729649_at) / Fold change /veh PRF1 (11729649_at) / RFU, ZNF638 /// ZNF638-IT1 / Fold change vs veh, ZNF638 /// ZNF638-IT1 / RFU, PANK3 / Fold change vs veh, PANK3 / RFU, SH3YL1 / Fold change vs veh, SH3YL1 / RFU, ZEB2 / Fold change vs veh, ZEB2 / RFU, NRIP1 / Fold change vs veh, NRIP1 / RFU, PTTG1IP / Fold change vs veh, PTTG1IP / RFU, CAPN2 / Fold change vs veh, CAPN2 / RFU, MED14 / Fold change vs veh, MED14 / RFU, SNORA58 / Fold change vs veh, SNORA58 / RFU, C1orf63 / Fold change vs veh, C1orf63 / RFU, LRRFIP1 / Fold change vs veh, LRRFIP1 / RFU, NDUFAF7 / Fold change vs veh, NDUFAF7 / RFU, SLC12A2 / Fold change vs veh, SLC12A2 / RFU, IBTK / Fold change vs veh, IBTK / RFU, ESF1 / Fold change vs veh, ESF1 / Fold change vs veh, TMEM50B / RFU, TAOK1 / Fold change vs veh, TAOK1 / RFU, ACBD3 / Fold change vs veh, ACBD3 / RFU, TMA16 / Fold change vs veh, TMA16 / RFU, RWDD3 / Fold change vs veh, RWDD3 / RFU, BCAT1 / Fold change vs veh, BCAT1 / RFU, EDEM3 / Fold change vs veh, EDEM3 / RFU, TMEM33 / Fold change vs veh, TMEM33 / RFU, WDR75 / Fold change vs veh, WDR75 / RFU, AHCTF1 / Fold change vs veh, AHCTF1 / RFU, TFRC / Fold change vs veh, TFRC / RFU, ZDHHC17 / Fold change vs veh, ZDHHC17 / RFU, NOM1 / Fold change vs veh, NOM1 / RFU, ARL8B / Fold change vs veh, ARL8B / RFU, ZBTB11 / Fold change vs veh, ZBTB11 / RFU, TAMM41 / Fold change vs veh, TAMM41 / RFU, KIAA1704 /// LOC100996395 / Fold change vs veh, KIAA1704 /// LOC100996395 / RFU, ING1 / Fold change vs veh, ING1 / RFU, TRMT61B / Fold change vs veh, TRMT61B / RFU, FUBP3 / Fold change vs veh, FUBP3 / RFU, TP53 / Fold change vs veh, TP53 / RFU, TNKS2 / Fold change vs veh, TNKS2 / RFU, ZFP14 / Fold change vs veh, ZFP14 / RFU, ACTR2 / Fold change vs veh, ACTR2 / RFU, PPP3R1 / Fold change vs veh, PPP3R1 / RFU, PIK3R1 / Fold change vs veh, PIK3R1 / RFU, HNRNPA1 / Fold change vs veh, HNRNPA1 / RFU, RNF170 / Fold change vs veh, RNF170 / RFU, ZNF28 / Fold change vs veh, ZNF28 / RFU, RNGTT / Fold change vs veh, RNGTT / RFU, OGT / Fold change vs veh, OGT / RFU, BRD1 / Fold change vs veh, BRD1 / RFU, MARS / Fold change vs veh, MARS / RFU, ZNF655 / Fold change vs veh, ZNF655 / RFU, FAHD1 / Fold change vs veh, FAHD1 / RFU, BDP1 / Fold change vs veh, BDP1 / RFU, LRRCC1 / Fold change vs veh, LRRCC1 / RFU, ARID1A / Fold change vs veh, ARID1A / RFU, ZNF146 / Fold change vs veh, ZNF146 / RFU, ZNF330 / Fold change vs veh, ZNF330 / RFU, GPN3 / Fold change vs veh, GPN3 / RFU, C9orf123 / Fold change vs veh, C9orf123 / RFU, N4BP2L2 / Fold change vs veh, N4BP2L2 / RFU, ARFIP1 / Fold change vs veh, ARFIP1 / RFU, FAM179B / Fold change vs veh, FAM179B / RFU, BCL10 / Fold change vs veh, BCL10 / RFU, UHRF1BP1L / Fold change vs veh, UHRF1BP1L / RFU, BET1 / Fold change vs veh, BET1 / RFU, CNOT2 / Fold change vs veh, CNOT2 / RFU, ZNF268 / Fold change vs veh, ZNF268 / Fold change vs veh, ZNF507 / RFU, DGCR2 / Fold change vs veh, DGCR2 / RFU, WDSUB1 / Fold change vs veh, WDSUB1 / Fold change vs veh, HSP90B1 /// MIR3652 / RFU, ADSS / Fold change vs veh, ADSS / RFU, GK / Fold change vs veh, GK / RFU, ZNF148 / Fold change vs veh, ZNF148 / RFU, TAF9 / Fold change vs veh, TAF9 / RFU, SLC1A5 / Fold change vs veh, SLC1A5 / RFU, SLMO2 / Fold change vs veh, SLMO2 / RFU, ABCC4 / Fold change vs veh, ABCC4 / RFU, LOC101060439 /// RAP1B / Fold change vs veh, LOC101060439 /// RAP1B / RFU, RFX7 / Fold change vs veh, RFX7 / RFU, GTPBP10 / Fold change vs veh, GTPBP10 / RFU, CNEP1R1 / Fold change vs veh, CNEP1R1 / RFU, BIVM-ERCC5 /// ERCC5 / Fold change vs veh, BIVM-ERCC5 /// ERCC5 / RFU, ILF3 / Fold change vs veh, ILF3 / RFU 11762660_at / Fold change /veh 11762660_at / RFU VCAN (11757783_s_at) / Fold change /veh VCAN (11757783_s_at) / RFU DDX43 (11728927_at) / Fold change /veh DDX43 (11728927_at) / RFU KRT8 (11758188_x_at) / Fold change /veh KRT8 (11758188_x_at) / RFU NKD1 (11759106_at) / Fold change /veh NKD1 (11759106_at) / RFU SRD5A1 (11742802_a_at) / Fold change /veh SRD5A1 (11742802_a_at) / RFU TPSAB1 /// TPSB2 (11721975_s_at) / Fold change /veh TPSAB1 /// TPSB2 (11721975_s_at) / RFU GSTM3 (11746129_a_at) / Fold change /veh GSTM3 (11746129_a_at) / RFU IL23R (11737362_x_at) / Fold change /veh IL23R (11737362_x_at) / RFU TMEM51 (11727254_a_at) / Fold change /veh TMEM51 (11727254_a_at) / RFU PIWIL2 (11732686_x_at) / Fold change /veh PIWIL2 (11732686_x_at) / RFU ORM1 (11744905_x_at) / Fold change /veh ORM1 (11744905_x_at) / RFU CCDC152 (11743942_at) / Fold change /veh CCDC152 (11743942_at) / RFU ECM1 (11717891_a_at) / Fold change /veh ECM1 (11717891_a_at) / RFU IL23R (11748794_a_at) / Fold change /veh IL23R (11748794_a_at) / RFU TNFAIP8L3 (11732012_x_at) / Fold change /veh TNFAIP8L3 (11732012_x_at) / RFU MBOAT4 (11741988_at) / Fold change /veh MBOAT4 (11741988_at) / RFU 11764193_at / Fold change /veh 11764193_at / RFU TMEM53 (11763286_at) / Fold change /veh TMEM53 (11763286_at) / RFU MAGEB2 (11727129_at) / Fold change /veh MAGEB2 (11727129_at) / RFU TMEM200A (11744735_a_at) / Fold change /veh TMEM200A (11744735_a_at) / RFU CCDC152 (11751479_a_at) / Fold change /veh CCDC152 (11751479_a_at) / RFU FAM211A (11726209_a_at) / Fold change /veh FAM211A (11726209_a_at) / RFU RGS16 (11746705_a_at) / Fold change /veh RGS16 (11746705_a_at) / RFU VCAN (11755009_s_at) / Fold change /veh VCAN (11755009_s_at) / RFU RHOB (11743442_s_at) / Fold change /veh RHOB (11743442_s_at) / RFU RGS16 (11720943_a_at) / Fold change /veh RGS16 (11720943_a_at) / RFU RGS16 (11720944_at) / Fold change /veh RGS16 (11720944_at) / RFU, VPS4B / Fold change vs veh, VPS4B / RFU, CREB1 / Fold change vs veh, CREB1 / RFU, DNAJC13 / Fold change vs veh, DNAJC13 / RFU, GNAQ / Fold change vs veh, GNAQ / RFU, CDK5R1 / Fold change vs veh, CDK5R1 / RFU, ZRANB3 / Fold change vs veh, ZRANB3 / RFU, CUL4A / Fold change vs veh, CUL4A / RFU, CCNY / Fold change vs veh, CCNY / RFU, UFL1 / Fold change vs veh, UFL1 / RFU, COG3 / Fold change vs veh, COG3 / RFU, DIAPH2 / Fold change vs veh, DIAPH2 / RFU, SKA2 / Fold change vs veh, SKA2 / RFU, AFF3 / Fold change vs veh, AFF3 / RFU, LMF1 / Fold change vs veh, LMF1 / RFU, IPO11 / Fold change vs veh, IPO11 / RFU, DFFB / Fold change vs veh, DFFB / RFU, FOXP1 / Fold change vs veh, FOXP1 / RFU, CARD8 / Fold change vs veh, CARD8 / RFU, STRN3 / Fold change vs veh, STRN3 / RFU, ADK / Fold change vs veh, ADK / RFU, RASSF2 / Fold change vs veh, RASSF2 / RFU, WIPF1 / Fold change vs veh, WIPF1 / RFU, LARP1B / Fold change vs veh, LARP1B / RFU, RASA1 / Fold change vs veh, RASA1 / RFU, RB1 / Fold change vs veh, RB1 / RFU, PPFIA1 / Fold change vs veh, PPFIA1 / RFU, MAT2A / Fold change vs veh, MAT2A / RFU, CCT5 / Fold change vs veh, CCT5 / RFU, WDR92 / Fold change vs veh, WDR92 / RFU, CUX1 / Fold change vs veh, CUX1 / RFU, TTC7A / Fold change vs veh, TTC7A / RFU, TMEM135 / Fold change vs veh, TMEM135 / RFU, DEPTOR / Fold change vs veh, DEPTOR / RFU, CPM / Fold change vs veh, CPM / RFU, DNAJB6 / Fold change vs veh, DNAJB6 / RFU, CACNA2D3 / Fold change vs veh, CACNA2D3 / RFU, DTX4 / Fold change vs veh, DTX4 / RFU, TFCP2 / Fold change vs veh, TFCP2 / RFU, GMCL1 /// GMCL1P1 / Fold change vs veh, GMCL1 /// GMCL1P1 / RFU, AEBP2 / Fold change vs veh, AEBP2 / RFU, SNHG1 /// SNORD22 /// SNORD25 /// SNORD26 /// SNORD27 /// SNORD28 /// SNORD29 /// SNORD31 / Fold change vs veh, SNHG1 /// SNORD22 /// SNORD25 /// SNORD26 /// SNORD27 /// SNORD28 /// SNORD29 /// SNORD31 / Fold change (Aza/veh), C12orf56 (ProbeSet 11735607_a_at) / Fold change (ACY-1035/veh), C12orf56 (ProbeSet 11735607_a_at) / Fold change (Aza/veh), FGFR1OP (ProbeSet 11751329_s_at) / Fold change (ACY-1035/veh), FGFR1OP (ProbeSet 11751329_s_at) / Fold change (Aza/veh), VPS36 (ProbeSet 11739960_a_at) / Fold change (ACY-1035/veh), VPS36 (ProbeSet 11739960_a_at) / RFU SYPL1 (11715823_x_at) / Fold change /veh SYPL1 (11715823_x_at) / RFU IGFBP7 (11715501_s_at) / Fold change /veh IGFBP7 (11715501_s_at) / RFU REEP3 (11722064_at) / Fold change /veh REEP3 (11722064_at) / RFU IGLL1 (11728026_x_at) / Fold change /veh IGLL1 (11728026_x_at): dose or concentration left out as unconfirmed
Settings: ProbeSet 11722022_s_at; LIST D

Compound: Nc1ccc(-c2cccs2)cc1NC(=O)c1ccc2c(c1)cc(C1CC1)n2CCN1CCOCC1 [ACY-1035]
- RFU, CDK5R1: 47.94 RFU
